Data on 22 molecules can be found in patent US9776962B2, “Aromatic compounds with GPR40 agonistic activity” (TAKEDA PHARMACEUTICAL COMPANY LIMITED, priority 2013, dated 2017).

T1 sequence (O14842 whole entry): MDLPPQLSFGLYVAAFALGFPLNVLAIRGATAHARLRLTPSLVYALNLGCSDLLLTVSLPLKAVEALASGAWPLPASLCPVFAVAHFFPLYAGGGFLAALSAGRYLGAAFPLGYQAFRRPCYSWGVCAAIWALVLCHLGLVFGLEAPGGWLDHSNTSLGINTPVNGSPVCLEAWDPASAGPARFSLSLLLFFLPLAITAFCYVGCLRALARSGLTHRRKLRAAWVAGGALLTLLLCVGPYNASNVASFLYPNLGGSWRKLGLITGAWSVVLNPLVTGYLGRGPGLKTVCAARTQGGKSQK

The test has as its target T1, human GPR40 (Homo sapiens, UniProt O14842).
T1 construct: expressed in transfected cells
Nature of the test: Evaluation of human GPR40 agonist activity with increase in intracellular Ca2+ concentration as an index (FLIPR). Conditions: test compound 1 μM; CHO(dhfr−) cells stably expressing human GPR40; 100% = 10 μM compound of Example 153, 0% = DMSO. Format: cell-based. As to the method:
Plasmid hGPR40/pAKKO-1.11H for mammalian cells expression, wherein cDNA fragment (SEQ ID NO: 1) encoding the full-length human GPR40 was incorporated into an expression vector pAKKO-1.11H (Biochimica et Biophysica Acta vol. 1219 pp. 251-259 (1994)), was transfected into CHO-dhfr(−) cells (ATCC, CRL-9096) by using Lipofectamine 2000 (Invitrogen:11668-019). After transfection, the limiting dilution-culture method was performed to select clone in selection medium (nucleic acid-free α-MEM (Invitrogen:12561-056)) containing 10% dialyzed bovine serum (Invitrogen:26400-044)). The expression level of human GPR40 mRNA was confirmed by TaqMan PCR (Life Technologies), and the intracellular calcium mobilization activity of GPR40 ligand (γ-linolenic acid) was confirmed by FLIPR (Molecular Devices), and a clone of human GPR40 expressing CHO cells was selected.
Evaluation of Human GPR40 Agonist Activity with Increase in Intracellular Ca^2+ Concentration as an Index
CHO(dhfr−) cells that stably expressed human GPR40 were suspended in MEMα (Nikken Bio Medical Laboratory) containing 10% dialyzed bovine serum (JR Scientific), 10 mM HEPES (Life Technologies), 100 U/mL penicillin, 100 μg/mL streptomycin (Life Technologies), and plated on a 384 well black/clear cell culture plate at 10,000 cells/well. After culture overnight in a CO2 incubator at 37° C., the culture supernatant was removed, and loading buffer [Ca^2+ probe attached to Calcium Kit II-iCellux (DOJINDO) was dissolved in assay buffer (20 mM HEPES, 0.1% fatty acid-free BSA (Sigma-Aldrich), 2.5 mM probenecid (DOJINDO)-containing HESS (Life Technologies))] was added at 30 μL/well. After leaving for 1 hr at room temperature under light shielding, assay buffer containing the test compound at a final concentration of 1 μM was added at 10 μL/well in FLIPR Tetra (Molecular Devices), and the fluorescence amount was successively measured. Human GPR40 agonist activity calculated using an increase in the intracellular Ca^2+ concentration as an index, wherein the activity of 10 μM of the compound of Example 153 was 100%, and the activity when DMSO was added instead of the test compound was 0%.
`COc1ccc(C(=O)N(CC2CCC2)c2ccccn2)c(N2CCC(COc3cc(C(CC(=O)O)C4CC4)ccn3)CC2)c1` (stereo not shown) [Example 118, 3-(2-((1-(2-((cyclobutylmethyl)(pyridin-2-yl)carbamoyl)-5-methoxyphenyl)piperidin-4-yl)methoxy)pyridin-4-yl)-3-cyclopropylpropanoic acid] showed an activation at 1 µM of 103%. The value for `COc1ccc(C(=O)N(CC(C)(C)O)c2ccccn2)c(N2CCC(COc3cc(C(CC(=O)O)C4CC4)ccn3)CC2)c1` (stereo not shown) [Example 119, 3-cyclopropyl-3-(2-((1-(2-((2-hydroxy-2-methylpropyl)(pyridin-2-yl)carbamoyl)-5-methoxyphenyl)piperidin-4-yl)methoxy)pyridin-4-yl)propanoic acid] was 52%; that for `COc1ccc(C(=O)N(CC(C)(C)F)c2ccccn2)c(N2CCC(COc3cc(C(CC(=O)O)C4CC4)ccn3)CC2)c1` (stereo not shown) [Example 120, 3-cyclopropyl-3-(2-((1-(2-((2-fluoro-2-methylpropyl)(pyridin-2-yl)carbamoyl)-5-methoxyphenyl)piperidin-4-yl)methoxy)pyridin-4-yl)propanoic acid] was 100%; that for `COc1ccc(C(=O)N(c2ccccn2)C(C)C(C)C)c(N2CCC(COc3cc(C(CC(=O)O)C4CC4)ccn3)CC2)c1` (stereo not shown) [Example 121, 3-cyclopropyl-3-(2-((1-(5-methoxy-2-((3-methylbutan-2-yl)(pyridin-2-yl)carbamoyl)phenyl)piperidin-4-yl)methoxy)pyridin-4-yl)propanoic acid] was 95%. `COc1ccc(C(=O)N(CC(C)C)c2cccc(C)n2)c(N2CCC(COc3cc(C(CC(=O)O)C4CC4)ccn3)CC2)c1` (stereo not shown) [Example 122, 3-cyclopropyl-3-(2-((1-(5-methoxy-2-((2-methylpropyl)(6-methylpyridin-2-yl)carbamoyl)phenyl)piperidin-4-yl)methoxy)pyridin-4-yl)propanoic acid]: the activation at 1 µM came to 101%. In turn, `COc1ccc(C(=O)N(CC(C)C)c2cc(C)ccn2)c(N2CCC(COc3cc(C(CC(=O)O)C4CC4)ccn3)CC2)c1` (stereo not shown) [Example 123, 3-cyclopropyl-3-(2-((1-(5-methoxy-2-((2-methylpropyl)(4-methylpyridin-2-yl)carbamoyl)phenyl)piperidin-4-yl)methoxy)pyridin-4-yl)propanoic acid] returned an activation at 1 µM of 99%. Regarding `COc1ccc(C(=O)N(CC2CC2)c2cccc(C)n2)c(N2CCC(COc3cc(C(CC(=O)O)C4CC4)ccn3)CC2)c1` (stereo not shown) [Example 124, 3-cyclopropyl-3-(2-((1-(2-((cyclopropylmethyl)(6-methylpyridin-2-yl)carbamoyl)-5-methoxyphenyl)piperidin-4-yl)methoxy)pyridin-4-yl)propanoic acid], the activation at 1 µM stood at 96%. In the case of `COc1ccc(C(=O)N(CC2CC2)c2cc(C)ccn2)c(N2CCC(COc3cc(C(CC(=O)O)C4CC4)ccn3)CC2)c1` (stereo not shown) [Example 125, 3-cyclopropyl-3-(2-((1-(2-((cyclopropylmethyl)(4-methylpyridin-2-yl)carbamoyl)-5-methoxyphenyl)piperidin-4-yl)methoxy)pyridin-4-yl)propanoic acid] it was 95%. The molecule `COc1ccc(C(=O)N(CC(C)(F)F)c2ccccn2)c(N2CCC(COc3cc(C(CC(=O)O)C4CC4)ccn3)CC2)c1` (stereo not shown) [Example 126, 3-cyclopropyl-3-(2-((1-(2-((2,2-difluoropropyl)(pyridin-2-yl)carbamoyl)-5-methoxyphenyl)piperidin-4-yl)methoxy)pyridin-4-yl)propanoic acid] came in with an activation at 1 µM of 99%.

In turn, `COc1ccc(C(=O)N(CC(C)C)c2ccnc(OC)c2)c(N2CCC(COc3cc(C(CC(=O)O)C4CC4)ccn3)CC2)c1` (stereo not shown) [Example 127, 3-cyclopropyl-3-(2-((1-(5-methoxy-2-((2-methoxypyridin-4-yl)(2-methylpropyl)carbamoyl)phenyl)piperidin-4-yl)methoxy)pyridin-4-yl)propanoic acid] had an activation at 1 µM of 94%.

Molecule `COc1ccc(C(=O)N(CC(C)C)c2cccc(OC)n2)c(N2CCC(COc3cc(C(CC(=O)O)C4CC4)ccn3)CC2)c1` (stereo not shown) [Example 128, 3-cyclopropyl-3-(2-((1-(5-methoxy-2-((6-methoxypyridin-2-yl)(2-methylpropyl)carbamoyl)phenyl)piperidin-4-yl)methoxy)pyridin-4-yl)propanoic acid] returned an activation at 1 µM of 103%. In the case of `COc1ccc(C(=O)NCC(F)(F)C(F)(F)F)c(N2CCC(COc3cc(C(CC(=O)O)C4CC4)ccn3)CC2)c1` (stereo not shown) [Example 129, 3-cyclopropyl-3-(2-((1-(5-methoxy-2-((2,2,3,3,3-pentafluoropropyl)carbamoyl)phenyl)piperidin-4-yl)methoxy)pyridin-4-yl)propanoic acid] it was 81%; in that of `COc1ccc(C(=O)N(C)CC(F)(F)C(F)(F)F)c(N2CCC(COc3cc(C(CC(=O)O)C4CC4)ccn3)CC2)c1` (stereo not shown) [Example 130, 3-cyclopropyl-3-(2-((1-(5-methoxy-2-(methyl(2,2,3,3,3-pentafluoropropyl)carbamoyl)phenyl)piperidin-4-yl)methoxy)pyridin-4-yl)propanoic acid], 100%. The value for `COc1ccc(C(=O)N(CC(C)(C)OC)c2ccccn2)c(N2CCC(COc3cc(C(CC(=O)O)C4CC4)ccn3)CC2)c1` (stereo not shown) [Example 131, 3-cyclopropyl-3-(2-((1-(5-methoxy-2-((2-methoxy-2-methylpropyl)(pyridin-2-yl)carbamoyl)phenyl)piperidin-4-yl)methoxy)pyridin-4-yl)propanoic acid] was 85%; that for `COc1ccc(C(=O)N(CC(C)C)c2cccc(C#N)c2)c(N2CCC(COc3cc(C(CC(=O)O)C4CC4)ccn3)CC2)c1` (stereo not shown) [Example 132, 3-(2-((1-(2-((3-cyanophenyl)(2-methylpropyl)carbamoyl)-5-methoxyphenyl)piperidin-4-yl)methoxy)pyridin-4-yl)-3-cyclopropylpropanoic acid] was 99%. `COc1ccc(C(=O)N(CC(C)C)c2ccccc2)c(N2CCC(COc3cc(C(CC(=O)O)C4CC4)ccn3)CC2)c1` (stereo not shown) [Example 133, 3-cyclopropyl-3-(2-((1-(5-methoxy-2-((2-methylpropyl)(phenyl)carbamoyl)phenyl)piperidin-4-yl)methoxy)pyridin-4-yl)propanoic acid] displayed an activation at 1 µM of 98%. The value for `COc1ccc(C(=O)N(CC(C)(C)C#N)c2ccccn2)c(N2CCC(COc3cc(C(CC(=O)O)C4CC4)ccn3)CC2)c1` (stereo not shown) [Example 134, 3-(2-((1-(2-((2-cyano-2-methylpropyl)(pyridin-2-yl)carbamoyl)-5-methoxyphenyl)piperidin-4-yl)methoxy)pyridin-4-yl)-3-cyclopropylpropanoic acid] was 84%; that for `COc1ccnc(N(CC(C)C)C(=O)c2ccc(OC)cc2N2CCC(COc3cc(C(CC(=O)O)C4CC4)ccn3)CC2)c1` (stereo not shown) [Example 135, 3-cyclopropyl-3-(2-((1-(5-methoxy-2-((4-methoxypyridin-2-yl)(2-methylpropyl)carbamoyl)phenyl)piperidin-4-yl)methoxy)pyridin-4-yl)propanoic acid] was 94%; that for `COc1ccc(C(=O)N(CC(C)C)c2cccnc2OC)c(N2CCC(COc3cc(C(CC(=O)O)C4CC4)ccn3)CC2)c1` (stereo not shown) [Example 136, 3-cyclopropyl-3-(2-((1-(5-methoxy-2-((2-methoxypyridin-3-yl)(2-methylpropyl)carbamoyl)phenyl)piperidin-4-yl)methoxy)pyridin-4-yl)propanoic acid] was 95%. The value for `COc1ccc(C(=O)N(CC(F)F)c2ccccn2)c(N2CCC(COc3cc(C(CC(=O)O)C4CC4)ccn3)CC2)c1` (stereo not shown) [Example 137, 3-cyclopropyl-3-(2-((1-(2-((2,2-difluoroethyl)(pyridin-2-yl)carbamoyl)-5-methoxyphenyl)piperidin-4-yl)methoxy)pyridin-4-yl)propanoic acid] was 96%. As for `COc1ccc(C(=O)N(CC(F)(F)C(F)F)c2ccccn2)c(N2CCC(COc3cc(C(CC(=O)O)C4CC4)ccn3)CC2)c1` (stereo not shown) [Example 138, 3-cyclopropyl-3-(2-((1-(5-methoxy-2-(pyridin-2-yl(2,2,3,3-tetrafluoropropyl)carbamoyl)phenyl)piperidin-4-yl)methoxy)pyridin-4-yl)propanoic acid], the activation at 1 µM is 102%. For `COc1ccc(C(=O)N(CC2CC2(F)F)c2ccccn2)c(N2CCC(COc3cc(C(CC(=O)O)C4CC4)ccn3)CC2)c1` (stereo not shown) [Example 139, 3-cyclopropyl-3-(2-((1-(2-(((2,2-difluorocyclopropyl)methyl)(pyridin-2-yl)carbamoyl)-5-methoxyphenyl)piperidin-4-yl)methoxy)pyridin-4-yl)propanoic acid], the activation at 1 µM is 96%.
